Assay results published in ChEMBL document CHEMBL3091383, “Sorbicillamines A-E, nitrogen-containing sorbicillinoids from the deep-sea-derived fungus Penicillium sp. F23-2” (J Nat Prod, 2013).

Assays:
P388 = assay: Cytotoxicity against mouse P388 cells by SRB assay; format: functional, cell-based
HCT-116 = assay: Cytotoxicity against human HCT116 cells by MTT assay; format: functional, cell-based
HEK293 = assay: Cytotoxicity against HEK293 cells by MTT assay; format: cell-based; conditions: Homo sapiens
[1] = Cytotoxicity against human Bel7402 cells by MTT assay; format: functional, cell-based; conditions: Bel-7402
HeLa = assay: Cytotoxicity against human HeLa cells by MTT assay; format: functional, cell-based

Measured: IC50

C/C=C/C=C/C(=O)C1=C(N)[C@](C)(O)[C@]2(O)O[C@]3(C)C(O)=C(C)C(=O)/C(=C(O)/C=C/C=C/C)[C@@H]3[C@]2(C)C1=O
> 10 µM: all assays above

C/C=C/C=C/C(O)=C1\C(=O)[C@]2(C)C(=O)C(C)(O)[C@H]1[C@H](C(=O)C1=C(N)[C@](C)(O)[C@]3(O)O[C@]4(C)C(O)=C(C)C(=O)\C(=C(O)/C=C/C=C/C)[C@@H]4[C@]3(C)C1=O)[C@H]2/C=C/C (stereo not given in full)
> 10 µM: all assays above

C/C=C/C=C/C(=O)C1=C(O)[C@]2(C)C(=O)[C@@](C)(O)[C@H]1N1CCC[C@@H]12
> 10 µM: all assays above

C/C=C/C=C/C(O)=C1/C(=O)C(C)=C(O)[C@@]2(C)O[C@@]3(O)[C@@](C)(O)C4=C(C(=O)C[C@@H](/C=C/C)N4)C(=O)[C@@]3(C)[C@@H]12
> 10 µM: all assays above

C/C=C/C=C/C(O)=C1/C(=O)C(C)=C(O)[C@@]2(C)O[C@@]3(O)[C@@](C)(O)C4=C(C(=O)C[C@H](/C=C/C)N4)C(=O)[C@@]3(C)[C@@H]12
> 10 µM: all assays above
